In PubChem BioAssay (NCI):
Values joined by “and” are separate entries in the source; they are usually repeats but may differ in a detail not shown here. Identical values can stand only once.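 Exposure lasted 48 hours, with cells grown in 96-well plates and compounds tested at five concentrations. GI50 is the concentration that inhibits growth by half. TGI is the concentration that stops growth completely.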

What was measured:
Experiment in all cases: NCI anticancer screen, dose series, 48 h
RPMI-8226 leukemia = test system: RPMI-8226 leukemia
A498 renal = test system: A498 renal
ACHN renal = test system: ACHN renal
HOP-62 NSCLC = test system: HOP-62 NSCLC
BT-549 breast = test system: BT-549 breast
OVCAR-4 ovarian = test system: OVCAR-4 ovarian
OVCAR-3 ovarian = test system: OVCAR-3 ovarian
SNB-19 CNS = test system: SNB-19 CNS
SW-620 colon = test system: SW-620 colon
MOLT-4 leukemia = test system: MOLT-4 leukemia

SMILES	GI50 (RPMI-8226 leukemia)	TGI (RPMI-8226 leukemia)	GI50 (A498 renal)	TGI (A498 renal)	GI50 (ACHN renal)	TGI (ACHN renal)	GI50 (HOP-62 NSCLC)	TGI (HOP-62 NSCLC)	GI50 (BT-549 breast)	TGI (BT-549 breast)	GI50 (OVCAR-4 ovarian)	TGI (OVCAR-4 ovarian)	GI50 (OVCAR-3 ovarian)	TGI (OVCAR-3 ovarian)	GI50 (SNB-19 CNS)	TGI (SNB-19 CNS)	GI50 (SW-620 colon)	TGI (SW-620 colon)	GI50 (MOLT-4 leukemia)	TGI (MOLT-4 leukemia)
Cc1cc(Cl)nc(N(CCNc2ccnc3cc(Cl)ccc23)Cc2ccco2)n1	1.76 µM	4.27 µM	1.74 µM	5.51 µM	1.71 µM	3.4 µM	2.04 µM	4.79 µM	1.66 µM	3.3 µM	1.67 µM	3.38 µM	1.75 µM	3.32 µM	3.54 µM	16.2 µM	1.85 µM	4.45 µM	2.09 µM	4.65 µM
COc1ccc(-c2[nH]c3ccc(OC)cc3c2C=C(C#N)C#N)cc1	2.5 µM	> 100 µM	0.075 µM	3.97 µM	> 100 µM	> 100 µM	3.34 µM	> 100 µM	> 100 µM	> 100 µM	> 100 µM	> 100 µM	0.364 µM	1.9 µM	> 37 µM	> 100 µM	0.568 µM	> 100 µM	–	> 100 µM
Nc1nc(=S)c2ncn(C3OC(COP(=O)(O)O)C(O)C3O)c2[nH]1 (stereo not given)	0.451 µM	> 100 µM	0.631 µM	9.24 µM	1.99 µM	> 100 µM	0.447 µM	12.7 µM	2.38 µM	> 100 µM	2.19 µM	> 100 µM	3.2 µM	> 100 µM	> 100 µM	> 100 µM	3.59 µM	> 100 µM	0.354 µM	> 100 µM
CSc1nc2nc(-c3ccccc3)c(C)c-2c2n1C(C)C(=O)N2 (stereo not given)	16.4 µM	> 100 µM	32.2 µM	> 100 µM	38.1 µM	> 100 µM	44.7 µM	> 100 µM	50.3 µM	> 100 µM	40.1 µM	> 100 µM	26.8 µM	81.8 µM	38.5 µM	> 100 µM	58.8 µM	> 100 µM	40.3 µM	> 100 µM
COc1ccccc1Oc1nccc(-c2c(-c3ccc(F)cc3)ncn2C2CCNCC2)n1	> 19.3 µM	> 25 µM	> 25 µM	> 25 µM	15.4 µM	> 25 µM	> 25 µM	> 25 µM	> 23.6 µM	> 25 µM	> 25 µM	> 25 µM	> 25 µM	> 25 µM	> 25 µM	> 25 µM	> 25 µM	> 25 µM	> 16.3 µM	> 25 µM
O=C(Nc1ccc(OC(F)(F)Cl)cc1)c1cnc(N2CC[C@@H](O)C2)c(-c2ccn[nH]2)c1	9.44 µM	39.9 µM	14.8 µM	31.2 µM	5.03 µM	28.3 µM	11.4 µM	28.4 µM	10.6 µM	24.7 µM	7.07 µM	43.5 µM	15 µM	41.4 µM	12.9 µM	28.2 µM	5.84 µM	20.5 µM	9.23 µM	31.7 µM
O=C(O)CN(CCN(CC(=O)O)CC(=O)O)CC(=O)O.[Mn+2]	> 100 µM	> 100 µM	> 100 µM	> 100 µM	> 100 µM	> 100 µM	> 100 µM	> 100 µM	> 100 µM	> 100 µM	> 100 µM	> 100 µM	> 100 µM	> 100 µM	> 100 µM	> 100 µM	> 100 µM	> 100 µM	> 100 µM	> 100 µM
CCCCCCCCCCCCCCNC(=O)Nc1ccc(Cl)c(Cl)c1	1.24 µM	3.26 µM	2.13 µM	> 26.4 µM	3.17 µM	> 100 µM	2.77 µM	> 23.1 µM	1.87 µM	6.16 µM	2.79 µM	> 100 µM	2.47 µM	6.31 µM	4.16 µM	> 100 µM	3.18 µM	> 100 µM	1.6 µM	> 25.1 µM
Cc1noc(NC(=O)Nc2ccccc2F)c1C#N	–	> 100 µM	–	> 50.9 µM	–	> 46.7 µM	–	> 100 µM	–	> 100 µM	–	> 100 µM	–	> 100 µM	–	> 50.3 µM	–	> 100 µM	–	> 100 µM
NC(N)=NCCCC(NCc1c2ccccc2nc2ccccc12)C(=O)O (stereo not given)	–	> 53.3 µM	–	> 100 µM	–	> 100 µM	–	> 100 µM	–	> 100 µM	–	> 84.7 µM	–	> 100 µM	–	> 100 µM	–	> 100 µM	–	45 µM
N#CC(C#N)=C/C=C(\Sc1ccc(Cl)cc1)c1ccc(F)cc1	0.0597 µM	1.1 µM	3.42 µM	8.67 µM	1.52 µM	> 27.7 µM	2.54 µM	16 µM	1.16 µM	6.22 µM	19.5 µM	60.3 µM	0.31 µM	2.6 µM	5.67 µM	24.9 µM	0.0532 µM	–	0.281 µM	–
CC(C)Cc1ccc(C(C)/C=C2\CCC(CN(C)C)C2=O)cc1 (stereo not given)	–	9.94 µM	–	39.5 µM	–	38.1 µM	–	25 µM	–	31.1 µM	–	35.2 µM	–	26.5 µM	–	26.3 µM	–	17.4 µM	–	7.91 µM
CC(=O)Oc1ccc(C2=Cc3ccc(OC(C)=O)cc3OC2C)cc1 (stereo not given)	0.59 µM	16 µM	2.25 µM	7.95 µM	2.29 µM	> 100 µM	6.07 µM	57.2 µM	4.66 µM	69.9 µM	14.2 µM	81.4 µM	3.33 µM	15.3 µM	14.7 µM	> 100 µM	6.33 µM	29.8 µM	1.97 µM	19.4 µM
CC(=O)O[C@H]1CC2C(C3CC[C@H](C(C)CCC(=O)O)[C@]31C)[C@H](OC(C)=O)C[C@@H]1CC3(CC[C@]21C)OOC1(CCC(C)CC1)OO3 (stereo not given in full)	–	6.9 µM and 4.79 µM	–	28.6 µM and 29.8 µM	–	15.8 µM and 9.72 µM	–	7.39 µM and 3.49 µM	–	15.1 µM and 7.14 µM	–	12.2 µM and 5.77 µM	4.65 µM and 2.13 µM	16.4 µM and 5.44 µM	7.57 µM and 3.57 µM	20.1 µM and 14.7 µM	7.42 µM and 3.55 µM	22.2 µM and 16 µM	–	10.6 µM and 3.79 µM
CC(C)[C@@H]1CC[C@]2(CO2)[C@@H]2C(=O)OCC(C(=O)O)=C[C@H]21	0.24 µM	0.635 µM	0.203 µM	0.738 µM	0.43 µM	> 100 µM	0.35 µM	6.94 µM	0.286 µM	0.851 µM	0.44 µM	> 100 µM	0.47 µM	> 100 µM	0.379 µM	> 27.1 µM	0.334 µM	> 100 µM	0.62 µM	3.96 µM
CCCCCCCCCCCC[C@@H](O)[C@H]1CC[C@H]([C@H](O)CC[C@H](O)[C@@H]2CC[C@@H](CCCCCCCC3=C[C@H](C)OC3=O)O2)O1	2.45 µM	> 50 µM	–	> 50 µM	2.51 µM	> 50 µM	–	> 50 µM	0.00376 µM	–	–	> 50 µM	2.78 µM	> 50 µM	9.69 µM	> 50 µM	3.23 µM	> 50 µM	2.55 µM	> 50 µM
CC(=O)NC1C(O[C@H]2C[C@H]3[C@@H]4CC=C5C[C@@H](O)CC[C@]5(C)[C@H]4CC[C@]3(C)[C@H]2[C@H](C)C(=O)CCC(C)C)OCC(O)C1O (stereo not given in full)	0.593 µM	2.06 µM	0.977 µM	2.88 µM	3.75 µM	> 42.5 µM	2.18 µM	8.31 µM	0.776 µM	6.96 µM	5.31 µM	41 µM	5.2 µM	34 µM	3.31 µM	11 µM	3.21 µM	9.78 µM	1.22 µM	3.11 µM
OCCCCC#Cc1ccccc1C#Cc1cccc(C(F)(F)F)c1	21.7 µM	40.6 µM	18.2 µM	33.1 µM	18.3 µM	32.4 µM	16.9 µM	33.3 µM	16.4 µM	30.7 µM	14 µM	28.1 µM	16.8 µM	31.6 µM	20.2 µM	36.4 µM	16.9 µM	37 µM	21.8 µM	59.9 µM
Cc1cnc(C(=O)NNc2nc3sc4c(c3c(=O)[nH]2)C(C)CCC4)cn1 (stereo not given)	3.39 µM	> 100 µM	2.84 µM	16.8 µM	0.55 µM	11 µM	0.273 µM	17.5 µM	2.08 µM	> 100 µM	0.449 µM	12.6 µM	0.506 µM	17.1 µM	1.29 µM	> 100 µM	2.62 µM	79.2 µM	0.676 µM	13.4 µM
COc1ccc(C(O)c2cc3c(N)c(C(=O)Nc4cccc5ccccc45)sc3nc2C)cc1 (stereo not given)	4.17 µM	> 100 µM	0.2 µM	0.676 µM	0.55 µM	> 55.6 µM	1.27 µM	> 100 µM	0.385 µM	–	1.58 µM	> 100 µM	2.53 µM	7.5 µM	0.469 µM	> 100 µM	0.284 µM	> 100 µM	0.399 µM	> 33.2 µM
CCOC(=O)/C(=C\c1cccc(C)c1)C(C)=O	–	32.2 µM	–	52 µM	–	66 µM	–	96.1 µM	–	22.7 µM	–	59.6 µM	–	28.1 µM	–	36.7 µM	–	27 µM	–	66.6 µM
COc1ccc(-c2cc(/C=C/C(=O)c3ccc(N)cc3)[nH]n2)cc1OC	1.28 µM	5.52 µM	2.37 µM	7.09 µM	1.67 µM	3.29 µM	2.8 µM	9.67 µM	1.5 µM	2.94 µM	2.68 µM	15.8 µM	1.92 µM	4.19 µM	4.36 µM	18 µM	2.5 µM	6.94 µM	3.11 µM	16.5 µM
CCc1ccc(Nc2cc(C)c3ccc(O)cc3n2)cc1	3.19 µM	20.2 µM	16.6 µM	30.6 µM	5.82 µM	19.5 µM	11.5 µM	24.3 µM	4.48 µM	16.3 µM	12.4 µM	30.9 µM	11.7 µM	27.8 µM	13 µM	32.1 µM	5.48 µM	20.2 µM	3.6 µM	19 µM
COCCN(Cc1ccc(F)cc1)c1ccc(CO)c(Cl)c1	17.6 µM	> 95.9 µM	0.048 µM	0.193 µM	39.9 µM	> 100 µM	13.5 µM	> 100 µM	40.4 µM	> 100 µM	1.82 µM	23 µM	3.54 µM	15.4 µM	33.4 µM	> 100 µM	7.29 µM	> 100 µM	34 µM	> 78.9 µM
ClCCOCCn1cnc2c(Cl)nc(Cl)nc21	18.6 µM	> 100 µM	16.2 µM	32.1 µM	14.4 µM	27.5 µM	15.7 µM	30.5 µM	14.7 µM	28.2 µM	17.3 µM	35.5 µM	4.68 µM	15.4 µM	16.4 µM	30.5 µM	6.36 µM	20.3 µM	24.7 µM	> 100 µM
C=CCN(CC=C)C(=O)c1cc(C)nc2c1c(=O)n(-c1ccccc1)c(=O)n2CCCN1CCN(c2ccccc2OC)CC1	> 50 µM	> 50 µM	> 50 µM	> 50 µM	> 50 µM	> 50 µM	> 50 µM	> 50 µM	> 50 µM	> 50 µM	> 50 µM	> 50 µM	> 50 µM	> 50 µM	> 50 µM	> 50 µM	> 50 µM	> 50 µM	> 50 µM	> 50 µM
